# Results published in patent US20240317721A1, “PYRAZOLYL DERIVATIVES AS INHIBITORS OF THE KRAS MUTANT PROTEIN” (NOVARTIS AG, priority 2021, published 2024).
# Target: KRasG12C (M1-K169, biotinylated on the N-terminus) (Homo sapiens (Human), UniProt P01116, G12C)
# Assay: Covalent competition assay: scintillation proximity assay (SPA) quantifying covalent modification of KRASG12C
# Assay type: binding
# Conditions: competition with radiolabeled covalent probe (Compound B/Compound A), 2 hours incubation, 10 nM KRasG12C
# Procedure, shortened: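 Scintillation proximity readout after streptavidin bead capture (30 min) of biotinylated KRasG12C(M1-K169):GDP, 10 nM final, which was covalently labelled over 2 h by 25 nM radio-probe plus 475 nM cold probe unless blocked by compound.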
row,SMILES,IC50
1,"C=CC(=O)N1CC2(CC(n3nc(N4CC[C@@H](CN5CCOC6(COC6)C5)CC4(C)C)c(-c4c(Cl)c(C)cc5[nH]ncc45)c3C)C2)C1 (single isomer, unassigned) [Example 299b]",23 nM
2,"C=CC(=O)N1CC2(CC(n3nc(N4CC[C@@H](CN5C[C@H](O)C[C@@H](F)C5)CC4(C)C)c(-c4c(Cl)c(Cl)cc5[nH]ncc45)c3C)C2)C1 (single isomer, unassigned) [Example 300a, 1-(6-(4-(5,6-dichloro-1H-indazol-4-yl)-3-((R)-4-(((3R*,5R*)-3-fluoro-5-hydroxypiperidin-1-yl)methyl)-2,2-dimethylpiperidin-1-yl)-5-methyl-1H-pyrazol-1-yl)-2-azaspiro[3.3]heptan-2-yl)prop-2-en-1-one]",> 5000 nM
3,"C=CC(=O)N1CC2(CC(n3nc(N4CC[C@@H](CN5C[C@H](O)C[C@@H](F)C5)CC4(C)C)c(-c4c(Cl)c(Cl)cc5[nH]ncc45)c3C)C2)C1 (single isomer, unassigned) [Example 300b, 1-(6-(4-(5,6-dichloro-1H-indazol-4-yl)-3-((R)-4-(((3R*,5R*)-3-fluoro-5-hydroxypiperidin-1-yl)methyl)-2,2-dimethylpiperidin-1-yl)-5-methyl-1H-pyrazol-1-yl)-2-azaspiro[3.3]heptan-2-yl)prop-2-en-1-one]",13 nM
4,"C=CC(=O)N1CC2(CC(n3nc(N4CC[C@@H](CN5CC6CC(C5)N6C(C)=O)CC4(C)C)c(-c4c(Cl)c(Cl)cc5[nH]ncc45)c3C)C2)C1 (single isomer, unassigned) [Example 301a]",1900 nM
5,"C=CC(=O)N1CC2(CC(n3nc(N4CC[C@@H](CN5CC6CC(C5)N6C(C)=O)CC4(C)C)c(-c4c(Cl)c(Cl)cc5[nH]ncc45)c3C)C2)C1 (single isomer, unassigned) [Example 301b]",< 5 nM
6,"C=CC(=O)N1CC2(CC(n3nc(N4CC[C@@H](CN5CCOCC56COC6)CC4(C)C)c(-c4c(C)c(Cl)cc5[nH]ncc45)c3C)C2)C1 (single isomer, unassigned) [Example 302a]",> 5000 nM
7,"C=CC(=O)N1CC2(CC(n3nc(N4CC[C@@H](CN5CCOCC56COC6)CC4(C)C)c(-c4c(C)c(Cl)cc5[nH]ncc45)c3C)C2)C1 (single isomer, unassigned) [Example 302b]",10 nM
8,"C=CC(=O)N1CC2(CC(n3nc(N4CC[C@@H](CN5CCOC[C@@H]5CO)CC4(C)C)c(-c4c(Cl)c(Cl)cc5[nH]ncc45)c3C)C2)C1 (single isomer, unassigned) [Example 303a]",5000 nM
9,"C=CC(=O)N1CC2(CC(n3nc(N4CC[C@@H](CN5CCOC[C@@H]5CO)CC4(C)C)c(-c4c(Cl)c(Cl)cc5[nH]ncc45)c3C)C2)C1 (single isomer, unassigned) [Example 303b]",5 nM
10,"C=CC(=O)N1CC2(CC(n3nc(N4CC[C@@H](CN(C)S(=O)(=O)N5CCN(C)CC5)CC4(C)C)c(-c4c(Cl)c(Cl)cc5[nH]ncc45)c3C)C2)C1 (single isomer, unassigned) [Example 304a]",> 5000 nM
11,"C=CC(=O)N1CC2(CC(n3nc(N4CC[C@@H](CN(C)S(=O)(=O)N5CCN(C)CC5)CC4(C)C)c(-c4c(Cl)c(Cl)cc5[nH]ncc45)c3C)C2)C1 (single isomer, unassigned) [Example 304b]",10 nM
12,"C=CC(=O)N1CC2(CC(n3nc(N4CC[C@@H](CN5CCC6COCC65)CC4(C)C)c(-c4c(C)c(Cl)cc5[nH]ncc45)c3C)C2)C1 (single isomer, unassigned) [Example 305a, 1-(6-(4-(6-chloro-5-methyl-1H-indazol-4-yl)-3-((R)-4-(((3aR*,6aR*)-hexahydro-1H-furo[3,4-b]pyrrol-1-yl)methyl)-2,2-dimethylpiperidin-1-yl)-5-methyl-1H-pyrazol-1-yl)-2-azaspiro[3.3]heptan-2-yl)prop-2-en-1-one]",2500 nM
13,"C=CC(=O)N1CC2(CC(n3nc(N4CC[C@@H](CN5CCC6COCC65)CC4(C)C)c(-c4c(C)c(Cl)cc5[nH]ncc45)c3C)C2)C1 (single isomer, unassigned) [Example 305b, 1-(6-(4-(6-chloro-5-methyl-1H-indazol-4-yl)-3-((R)-4-(((3aR*,6aR*)-hexahydro-1H-furo[3,4-b]pyrrol-1-yl)methyl)-2,2-dimethylpiperidin-1-yl)-5-methyl-1H-pyrazol-1-yl)-2-azaspiro[3.3]heptan-2-yl)prop-2-en-1-one]",19 nM
14,"C=CC(=O)N1CC2(CC(n3nc(N4CC[C@@H](CN5CCC6COCC65)CC4(C)C)c(-c4c(C)c(Cl)cc5[nH]ncc45)c3C)C2)C1 (single isomer, unassigned) [Example 306a, 1-(6-(4-(6-chloro-5-methyl-1H-indazol-4-yl)-3-((R)-4-(((3aR*,6aR*)-hexahydro-1H-furo[3,4-b]pyrrol-1-yl)methyl)-2,2-dimethylpiperidin-1-yl)-5-methyl-1H-pyrazol-1-yl)-2-azaspiro[3.3]heptan-2-yl)prop-2-en-1-one]",> 5000 nM
15,"C=CC(=O)N1CC2(CC(n3nc(N4CC[C@@H](CN5CCC6COCC65)CC4(C)C)c(-c4c(C)c(Cl)cc5[nH]ncc45)c3C)C2)C1 (single isomer, unassigned) [Example 306b, 1-(6-(4-(6-chloro-5-methyl-1H-indazol-4-yl)-3-((R)-4-(((3aR*,6aR*)-hexahydro-1H-furo[3,4-b]pyrrol-1-yl)methyl)-2,2-dimethylpiperidin-1-yl)-5-methyl-1H-pyrazol-1-yl)-2-azaspiro[3.3]heptan-2-yl)prop-2-en-1-one]",5 nM
16,"C=CC(=O)N1CC2(CC(n3nc(N4CC[C@@H](CN5CCC56COC6)CC4(C)C)c(-c4c(Cl)c(Cl)cc5[nH]ncc45)c3C)C2)C1 (single isomer, unassigned) [Example 307a]",> 5000 nM
17,"C=CC(=O)N1CC2(CC(n3nc(N4CC[C@@H](CN5CCC56COC6)CC4(C)C)c(-c4c(Cl)c(Cl)cc5[nH]ncc45)c3C)C2)C1 (single isomer, unassigned) [Example 307b]",8 nM

row,SMILES,IC50
1,"C=CC(=O)N1CC2(CC(n3nc(N4CC[C@@H](CN5CC6COCC(C5)O6)CC4(C)C)c(-c4c(Cl)c(Cl)cc5[nH]ncc45)c3C)C2)C1 (single isomer, unassigned) [Example 308a]",747 nM
2,"C=CC(=O)N1CC2(CC(n3nc(N4CC[C@@H](CN5CC6COCC(C5)O6)CC4(C)C)c(-c4c(Cl)c(Cl)cc5[nH]ncc45)c3C)C2)C1 (single isomer, unassigned) [Example 308b]",10 nM
3,"C=CC(=O)N1CC2(CC(n3nc(N4CC[C@@H](CN5CCN(C(=O)CO)CC5)CC4(C)C)c(-c4c(Cl)c(Cl)cc5[nH]ncc45)c3C)C2)C1 (single isomer, unassigned) [Example 310a]",2900 nM
4,"C=CC(=O)N1CC2(CC(n3nc(N4CC[C@@H](CN5CCN(C(=O)CO)CC5)CC4(C)C)c(-c4c(Cl)c(Cl)cc5[nH]ncc45)c3C)C2)C1 (single isomer, unassigned) [Example 310b]",7 nM
5,"C=CC(=O)N1CC2(CC(n3nc(N4CC[C@@H](CN5CCOC6(C5)CN(C(C)=O)C6)CC4(C)C)c(-c4c(Cl)c(Cl)cc5[nH]ncc45)c3C)C2)C1 (single isomer, unassigned) [Example 311a]",1300 nM
6,"C=CC(=O)N1CC2(CC(n3nc(N4CC[C@@H](CN5CCOC6(C5)CN(C(C)=O)C6)CC4(C)C)c(-c4c(Cl)c(Cl)cc5[nH]ncc45)c3C)C2)C1 (single isomer, unassigned) [Example 311b]",18 nM
7,"C=CC(=O)N1CC2(CC(n3nc(N4CC[C@@H](CN5CCN6C(=O)OCC6C5)CC4(C)C)c(-c4c(Cl)c(Cl)cc5[nH]ncc45)c3C)C2)C1 (single isomer, unassigned) [Example 312a]",831 nM
8,"C=CC(=O)N1CC2(CC(n3nc(N4CC[C@@H](CN5CCN6C(=O)OCC6C5)CC4(C)C)c(-c4c(Cl)c(Cl)cc5[nH]ncc45)c3C)C2)C1 (single isomer, unassigned) [Example 312b]",9 nM
9,"C=CC(=O)N1CC2(CC(n3nc(N4CC[C@@H](CN5CCC[C@H]5C(=O)N(C)C)CC4(C)C)c(-c4c(Cl)c(Cl)cc5[nH]ncc45)c3C)C2)C1 (single isomer, unassigned) [Example 313a]",410 nM
10,"C=CC(=O)N1CC2(CC(n3nc(N4CC[C@@H](CN5CCC[C@H]5C(=O)N(C)C)CC4(C)C)c(-c4c(Cl)c(Cl)cc5[nH]ncc45)c3C)C2)C1 (single isomer, unassigned) [Example 313b]",6 nM
11,"C=CC(=O)N1CC2(CC(n3nc(N4CC[C@@H](CN5CC6CCC(C5)O6)CC4(C)C)c(-c4c(Cl)c(Cl)cc5[nH]ncc45)c3C)C2)C1 (single isomer, unassigned) [Example 314a]",2100 nM
12,"C=CC(=O)N1CC2(CC(n3nc(N4CC[C@@H](CN5CC6CCC(C5)O6)CC4(C)C)c(-c4c(Cl)c(Cl)cc5[nH]ncc45)c3C)C2)C1 (single isomer, unassigned) [Example 314b]",52 nM
13,"C=CC(=O)N1CC2(CC(n3nc(N4CC[C@@H](CN5CCCN(C(C)=O)CC5)CC4(C)C)c(-c4c(Cl)c(Cl)cc5[nH]ncc45)c3C)C2)C1 (single isomer, unassigned) [Example 315a]",2000 nM
14,"C=CC(=O)N1CC2(CC(n3nc(N4CC[C@@H](CN5CCCN(C(C)=O)CC5)CC4(C)C)c(-c4c(Cl)c(Cl)cc5[nH]ncc45)c3C)C2)C1 (single isomer, unassigned) [Example 315b]",7 nM
15,"C=CC(=O)N1CC2(CC(n3nc(N4CC[C@@H](CN5CC6(CCOC6)C5)CC4(C)C)c(-c4c(Cl)c(Cl)cc5[nH]ncc45)c3C)C2)C1 (single isomer, unassigned) [Example 316a]",1200 nM
16,"C=CC(=O)N1CC2(CC(n3nc(N4CC[C@@H](CN5CC6(CCOC6)C5)CC4(C)C)c(-c4c(Cl)c(Cl)cc5[nH]ncc45)c3C)C2)C1 (single isomer, unassigned) [Example 316b]",9 nM
17,"C=CC(=O)N1CC2(CC(n3nc(N4CC[C@@H](CN5CCC6(C5)CN(C(C)=O)C6)CC4(C)C)c(-c4c(Cl)c(Cl)cc5[nH]ncc45)c3C)C2)C1 (single isomer, unassigned) [Example 317a]",888 nM
